# Reference: ChEMBL document CHEMBL4421722, “Inhibitors of protein prenyltransferases” (2013)
# pIC50: −log10 of the molar value.
# What was measured:
# [1] = system: K562; experiment: Antiproliferative activity against human K562 cells assessed as inhibition of cell proliferation incubated for 72 hrs by CCK8 assay; assay type: functional, cell-based; details: K562, 72 h
# [2] = system: Jurkat; experiment: Antiproliferative activity against human Jurkat cells assessed as inhibition of cell proliferation incubated for 72 hrs by CCK8 assay; assay type: functional, cell-based
# [3] = Inhibition of rat recombinant geranylgeranyltransferase type I expressed in Escherichia coli assessed as reduction in geranylgeranylation of RhoA incubated for 30 mins in presence of [3H]GGPP by scintillation counting assay relative to control
# [4] = biological target: Protein farnesyltransferase (Rattus norvegicus, UniProt Q02293+Q04631); experiment: Inhibition of rat recombinant FTase alpha/beta expressed in Escherichia coli using K-Ras4B as a substrate as and [3H]farnesyl pyrophosphate incubated for 30 mins by scintillation counting assay
# [5] = species on record: Rattus norvegicus; experiment: Inhibition of rat recombinant geranylgeranyltransferase type I expressed in Escherichia coli assessed as residual enzyme activity for geranylgeranylation of K-Ras4B at 50 uM incubated for 30 mins in presence of [3H]GGPP by scintillation counting assay relative to control
# [6] = species on record: Rattus norvegicus; experiment: Inhibition of rat recombinant geranylgeranyltransferase type I expressed in Escherichia coli assessed as residual enzyme activity for geranylgeranylation of RhoA at 50 uM incubated for 30 mins in presence of [3H]GGPP by scintillation counting assay relative to control
# [7] = biological target: T1, Geranylgeranyl transferase type-2 (Homo sapiens, UniProt P53611+Q92696); experiment: Inhibition of RabGGTase (unknown origin) using YPTI as substrate protein and [3H]geranylgeranyl pyrophosphate incubated for 20 mins by scintillation counting assay; assay type: protein-complex assay
# T1 sequence (P53611 whole entry): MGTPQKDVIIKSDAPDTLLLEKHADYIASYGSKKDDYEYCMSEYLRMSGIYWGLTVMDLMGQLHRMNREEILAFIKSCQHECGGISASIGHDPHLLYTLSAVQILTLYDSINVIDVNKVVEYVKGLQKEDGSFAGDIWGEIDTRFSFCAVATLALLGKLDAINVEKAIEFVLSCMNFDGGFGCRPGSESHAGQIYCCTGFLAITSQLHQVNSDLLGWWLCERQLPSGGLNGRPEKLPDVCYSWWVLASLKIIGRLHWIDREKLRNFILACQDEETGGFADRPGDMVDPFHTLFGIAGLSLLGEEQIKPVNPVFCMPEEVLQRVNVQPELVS
# T1 sequence (Q92696 whole entry): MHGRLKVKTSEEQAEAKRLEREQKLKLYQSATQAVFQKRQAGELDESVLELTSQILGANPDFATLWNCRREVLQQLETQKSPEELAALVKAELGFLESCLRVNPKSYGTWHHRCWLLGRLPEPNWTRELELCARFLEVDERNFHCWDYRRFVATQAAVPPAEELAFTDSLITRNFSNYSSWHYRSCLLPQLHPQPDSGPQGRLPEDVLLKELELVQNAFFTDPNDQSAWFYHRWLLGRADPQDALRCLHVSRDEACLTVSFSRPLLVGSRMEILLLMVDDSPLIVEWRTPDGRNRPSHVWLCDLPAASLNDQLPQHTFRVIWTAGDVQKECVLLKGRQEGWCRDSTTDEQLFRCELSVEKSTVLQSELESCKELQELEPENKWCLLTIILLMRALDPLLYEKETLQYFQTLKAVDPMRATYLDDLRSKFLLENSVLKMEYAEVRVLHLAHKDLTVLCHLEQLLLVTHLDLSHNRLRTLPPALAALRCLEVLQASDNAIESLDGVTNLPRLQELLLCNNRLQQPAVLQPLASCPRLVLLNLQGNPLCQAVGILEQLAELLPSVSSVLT
# [8] = Inhibition of rat recombinant geranylgeranyltransferase type I expressed in Escherichia coli assessed as reduction in geranylgeranylation of K-Ras4B incubated for 30 mins in presence of [3H]GGPP by scintillation counting assay
# [9] = Antiproliferative activity against human MCF10A cells assessed as inhibition of cell proliferation incubated for 72 hrs by CCK8 assay; assay type: cell-based, MCF-10A
# [10] = system: MCF7; experiment: Antiproliferative activity against human MCF7 cells assessed as inhibition of cell proliferation incubated for 6 days by CCK8 assay; assay type: functional, cell-based; details: MCF7, 144 h
# [11] = system: CFPAC-1; experiment: Antiproliferative activity against human CFPAC-1 cells assessed as inhibition of cell proliferation incubated for 72 hrs by CCK8 assay; assay type: functional, cell-based; details: CFPAC-1, 72 h
# [12] = system: MIA PaCa-2; experiment: Antiproliferative activity against human MIAPaCa2 cells assessed as inhibition of cell proliferation incubated for 72 hrs by CCK8 assay; assay type: functional, cell-based; details: MIA PaCa-2, 72 h
# [13] = system: ASPC1; experiment: Antiproliferative activity against human AsPC1 cells assessed as inhibition of cell proliferation incubated for 6 days by CCK8 assay; assay type: functional, cell-based; details: ASPC1, 144 h
# [14] = system: Capan-2; experiment: Antiproliferative activity against human Capan2 cells assessed as inhibition of cell proliferation incubated for 72 hrs by CCK8 assay; assay type: functional, cell-based; details: Capan-2, 72 h
GI50 [2] [µM],pIC50 [3],pIC50 [8],Compound,also measured
–,–,–,CCOC(=O)C1=C[C@@H](C(C)(C)C)N(S(=O)(=O)c2ccccc2C)[C@H]1c1ccc(Cl)cc1,pIC50 [1]: < 4.60
3.53 to 6.1,4.30 to 4.70,–,COC(=O)[C@H](CC(C)C)NC(=O)C1=CC[C@@H](c2ccc(Cl)cc2)N(S(=O)(=O)c2ccccc2C)[C@H]1c1cccc(Cl)c1,–
–,5.06,–,Cc1ccc(S(=O)(=O)N2[C@H](CC3CCCC3)[C@@H](SCCC(=O)OC(C)(C)C)[C@@H](C(=O)O)[C@@H]2c2cccc(Cl)c2)cc1,pIC50 [4]: < 4.00; Activity [5]: 20.6%; Activity [6]: 5.6%; pIC50 [7]: 5.33
–,–,–,Cc1ccccc1S(=O)(=O)N1[C@@H](c2ccc(Cl)cc2)C(C(N)=O)=C[C@H]1C(C)(C)C,pIC50 [1]: 4.96
–,5.62,–,CC(C)(C)OC(=O)CCS[C@H]1[C@@H](C(=O)O)[C@H](c2ccc(Cl)cc2)N(S(=O)(=O)c2ccccc2)[C@@H]1CC1CCCC1,pIC50 [4]: < 4.00; Activity [5]: 30.4%; Activity [6]: 9.7%; pIC50 [7]: 5.15
–,4.52,4.70,Cc1ccc(S(=O)(=O)N2[C@H](C)C=C(C(=O)O)[C@@H]2c2cccc(Cl)c2)cc1,–
–,–,–,CC(C)C[C@H](NC(=O)C1=CC[C@@H](c2cccc(Br)c2)N(S(=O)(=O)c2ccc(Cl)cc2)[C@H]1c1cccc(Cl)c1)C(N)=O,GI50 at 72 h [9]: 14.2 µM; GI50 [10]: 3.43 µM; GI50 [1]: 7.06 µM
–,3.92,4.10,Cc1ccc(S(=O)(=O)N2[C@@H](c3ccccc3)C(C(=O)O)=CC[C@H]2c2ccc(F)cc2)cc1,–
–,4.64,4.74,Cc1ccc(S(=O)(=O)N2[C@@H](c3cccc(F)c3)C(C(=O)O)=C[C@H]2C(C)(C)C)cc1,Activity [5]: 23.7%; Activity [6]: 9.1%
–,4.40,4.48,Cc1ccc(S(=O)(=O)N2[C@@H](c3ccc(Cl)c(Cl)c3)C(C(=O)O)=C[C@H]2C(C)(C)C)cc1,–
5.36,< 4.70,–,Cc1ccccc1S(=O)(=O)N1[C@@H](c2cccc(Cl)c2)C(C(N)=O)=CC[C@H]1c1ccc(Cl)cc1,–
–,> 5.60,> 5.70,CCC[C@@H]1[C@@H](Sc2ccc(OC)cc2)[C@@H](C(=O)O)[C@H](c2ccc(Cl)c(Cl)c2)N1S(=O)(=O)c1ccc(C)cc1,Activity [5]: 10.9%; Activity [6]: 1.1%
–,–,–,Cc1ccccc1S(=O)(=O)N1[C@@H](c2ccc(Cl)cc2)C(C(=O)N[C@@H](Cc2ccccc2)C(=O)O)=C[C@H]1C(C)(C)C,GI50 [11]: 6.38 µM; GI50 [12]: 7.48 µM; GI50 [13]: 12.4 µM; GI50 [14]: 11.5 µM
–,< 4.30,–,CCCCCCS[C@H]1[C@@H](C(=O)O)[C@H](c2ccc(Br)cc2)N(S(=O)(=O)c2ccc(C)cc2)[C@@H]1CCCCCC,pIC50 [4]: < 4.00; pIC50 [7]: 5.66
0.32 to 1.76,4.48 to 5.16,–,CC(C)C[C@H](NC(=O)C1=CC[C@@H](c2cccc(Br)c2)N(S(=O)(=O)c2ccc(F)cc2)[C@H]1c1cccc(Cl)c1)C(N)=O,GI50 [1]: 1.7 to 10.2 µM
6.1,< 4.30,–,Cc1ccccc1S(=O)(=O)N1[C@@H](c2cccc(Cl)c2)C(C(=O)N[C@@H](CC(C)C)C(N)=O)=CC[C@H]1c1ccc(Cl)cc1,GI50 [11]: 13.7 µM; GI50 at 72 h [9]: > 20 µM; GI50 [12]: 12 µM; GI50 [10]: 10.9 µM; GI50 [14]: 14 µM; GI50 [1]: 6.15 µM
–,4.00,4.19,CCCCC[C@@H]1[C@@H](Sc2ccc(C)cc2)[C@H](C(=O)O)[C@H](c2ccc(C)cc2)N1S(=O)(=O)c1ccc(C)cc1,–
–,< 4.30,–,CCCCCCS[C@H]1[C@@H](C(=O)O)[C@H](c2ccc(Br)cc2)N(S(=O)(=O)c2ccc(C)cc2)[C@@H]1CC,pIC50 [4]: < 4.00; pIC50 [7]: 5.32

GI50 [2] [µM],pIC50 [3],pIC50 [8],Compound,also measured
–,< 4.30,4.35,CC(C)(C)[C@@H]1C=C(C(=O)O)[C@H](c2ccc(Cl)cc2)N1S(C)(=O)=O,–
10.5 to 19,< 4.30,–,COC(=O)[C@H](Cc1ccccc1)NC(=O)C1=C[C@@H](C(C)(C)C)N(S(=O)(=O)c2ccccc2C)[C@H]1c1ccc(Cl)cc1,GI50 [1]: 14 to 17 µM; pIC50 [1]: 4.98
4.91 to 5.28,< 4.30,–,CC(C)(C)[C@@H]1C=C(C(=O)N[C@@H](Cc2ccccc2)C(N)=O)[C@H](c2ccc(Cl)c(Cl)c2)N1S(=O)(=O)c1c(Cl)cccc1Cl,–
–,4.35,4.42,Cc1ccc(S(=O)(=O)N2[C@H](C)C=C(C(=O)O)[C@@H]2c2ccc(Cl)c(Cl)c2)cc1,–
–,4.64,4.82,CC(C)(C)[C@@H]1C=C(C(=O)O)[C@H](c2ccccc2)N1S(C)(=O)=O,–
–,< 4.30,–,CCC[C@@H]1[C@@H](Sc2ccc(OC)cc2)[C@@H](C(=O)O)[C@H](c2ccc(Br)cc2)N1S(=O)(=O)c1ccc(C)cc1,pIC50 [4]: < 4.00; pIC50 [7]: 5.35
–,< 4.30,–,CCCCCS[C@H]1[C@@H](C(=O)O)[C@H](c2ccc(Br)cc2)N(S(=O)(=O)c2ccc(C)cc2)[C@@H]1CCC,pIC50 [4]: < 4.00; pIC50 [7]: 5.44
7.5,< 4.00,–,Cc1ccccc1S(=O)(=O)N1[C@@H](c2cccc(Cl)c2)C(CO)=CC[C@H]1c1ccc(Cl)cc1,GI50 [1]: 5.8 µM
4.57 to 5.91,4.30 to 5.57,–,CC(C)(C)[C@@H]1C=C(C(=O)N[C@@H](Cc2ccccc2)C(N)=O)[C@H](c2ccc(Cl)c(Cl)c2)N1S(=O)(=O)C(C)(C)C,GI50 [1]: 4.22 to 5.9 µM
3.51 to 5.1,4.70 to 5.68,–,COC(=O)[C@H](Cc1ccccc1)NC(=O)COCC1=C[C@@H](C(C)(C)C)N(S(=O)(=O)c2ccccc2C)[C@H]1c1ccc(Cl)cc1,pIC50 [1]: 5.22 to 5.24
2.22 to 6.38,< 4.30,–,CC(C)C[C@H](NC(=O)C1=CC[C@@H](c2cccc(Cl)c2)N(S(=O)(=O)c2ccc(Br)cc2)[C@H]1c1cccc(Br)c1)C(N)=O,GI50 [1]: 4.37 to 12.9 µM
–,3.70,3.60,CC[C@@H]1C=C(C(=O)O)[C@H](c2ccc(F)cc2)N1S(=O)(=O)c1ccc(C)cc1,–
–,6.22,–,NC(=O)[C@H](Cc1ccccc1)NC(=O)C1=CC[C@@H](c2cccc(Cl)c2)N(S(=O)(=O)c2ccc(Cl)cc2)[C@H]1c1cccc(Cl)c1,–
–,6.30,6.22,COC(=O)[C@H](CC(C)C)NC(=O)c1ccc(NCc2cnc[nH]2)cc1-c1ccccc1C,–
–,5.29,–,CCCCCCS[C@H]1[C@@H](C(=O)O)[C@H](c2ccc(Cl)c(Cl)c2)N(S(=O)(=O)c2ccc(C)cc2)[C@@H]1CCC,pIC50 [4]: < 4.00; pIC50 [7]: 5.15
3.57 to 4.86,4.70 to 5.89,–,NC(=O)[C@H](Cc1ccccc1)NC(=O)C1=CC[C@@H](c2cccc(Cl)c2)N(S(=O)(=O)c2ccc(Br)cc2)[C@H]1c1cccc(Cl)c1,GI50 [1]: 7.69 to 10.3 µM
–,< 4.70,–,CC(C)C[C@H](NC(=O)C1=CC[C@@H](c2cccc(Cl)c2)N(S(=O)(=O)c2ccc(Br)cc2)[C@H]1c1cccc(Cl)c1)C(N)=O,–
–,5.05,–,CC(C)(C)OC(=O)CCS[C@H]1[C@@H](C(=O)O)[C@H](c2ccc(Cl)cc2)N(S(=O)(=O)c2ccc(Cl)cc2)[C@@H]1CC1CCCC1,pIC50 [4]: < 4.00; Activity [5]: 22.5%; Activity [6]: 9.8%; pIC50 [7]: 5.51
